Laboratory results taken from publication PMC3927474, “Whole body synthesis rates of DHA from α-linolenic acid are greater than brain DHA accretion and uptake rates in adult rats” (Journal of Lipid Research, 2014).

What was measured:
[1] = Text: At 15 weeks postweaning, rats were subjected to surgery to implant a catheter into their jugular vein. The animals were anesthetized using isoflurane inhalation (5% induction, 1–3% maintenance). Before the incision was made, hair was shaved from the incision site and the site was sterilized with iodine and ethanol. A transverse incision was made anterior to the upper thorax. The jugular vein was located by blunt dissection. The vein was isolated and tied off. The vein was then nicked and a catheter (PE 50; Intramedic, Sparks, MD) with a 3.5 cm silastic tubing end (VWR, Mississauga, ON, Canada) was inserted into the vein. The catheter was secured using 3.0 silk sutures and a 16 gauge Angiocath (Becton Dickinson, Mississauga, ON, Canada) was used to guide the catheter subcutaneously to a site outside the body near the scapula. An incision was made at this site and the catheter was tucked beneath the skin at the incision site. The incision site was stapled to protect the catheter from the rats. The incision site on the chest was closed with 4.0 silk sutures and the rats were allowed to recover from the anesthetic under a heat lamp. Approximately 24 h after the surgery, the tail vein of the rats was cannulated with a 24 gauge Angiocath (Becton Dickinson). While the rats were restrained, the staple closing the incision site on the scapula was removed and the jugular vein catheter was connected to a longer polyethylene catheter. The rats were then placed in an infusion box that contained food, a chew toy, and bedding from the rat's cage. The tail vein catheter was then connected to an infusion line. Rats were able to move freely within the infusion box throughout the infusion.
Modified from the method of Rapoport, Igarashi, and Gao ([38]); 4.5 μmol/100 g body weight of ^2H-ALA (^2H14-ALA, purity >95% confirmed by GC-FID and GC-MS; Cayman Chemical, Ann Arbor, MI) was infused into the tail vein for 3 h. To prepare the infusate, a known amount of ^2H-ALA was dissolved in 5 mM HEPES buffer (pH 7.4) containing 50 mg/ml fatty acid-free BSA. The infusate was mixed by sonication at 37°C. An infusion pump (Harvard Apparatus PHD 2000; Holliston, MA) was used to infuse 3.78 ml of tracer solution at a constant rate of 0.021 ml/min for 3 h. Immediately before the infusion and every 30 min during the infusion 0.2 ml of blood was drawn from the jugular vein. The jugular vein catheter was flushed with heparinized saline (5% by volume) after every blood draw to prevent coagulation in the line. After 180 min of the infusion, 1 ml of blood was drawn from the jugular vein and the animals were euthanized with a lethal injection of T-61 into the tail vein. All blood samples were centrifuged for 10 min (PC-100 microcentrifuge; Diamed, ON, Canada) and the plasma was collected and stored at −80°C.
Plasma volume was determined using the method of Schreihofer, Hair, and Stepp as modified by Gao et al.([24], [39]). Briefly, a known amount of Evans Blue dye was injected into the tail veins of the rats. After 15 min, 1 ml of blood was drawn from the jugular vein, twice. The plasma was collected as described above, and 0.1 ml of plasma was diluted into 1 ml of saline. Absorbance at 604 nm was measured with a Nanodrop 1000 and by comparing the absorbance to a standard curve, the concentration of the dye was determined.
Fifty microliters of plasma were added to a test tube which contained known amounts of unesterified 17:0 standard and di-17:0 phosphatidylcholine standard. Lipids were extracted from the plasma using the method of Folch, Lees, and Sloane Stanley ([28]), as described above.
Thin layer chromatography (TLC) was used to separate esterified and unesterified lipids. The TLE was dried under N2 and reconstituted in 250 μl chloroform. TLC plates (TLC silica gel 60, EMD) that were washed in chloroform and methanol (2:1) were activated by heat at 100°C for 1 h.

PPARg = assay: Brain gene expression (TLDA qPCR); type: in vivo, rat; conditions: 15 wk diet; control diet = 1
Method: (§1) RNA was extracted from the flash-frozen half brains of the 15 week postweaning rats. The brain was briefly thawed and dissected to isolate the brainstem, cerebellum, cortex, hippocampus, striatum, and the rest of the brain. RNA was extracted from the brain regions using Trizol reagent (Ambion; Life Technologies, Burlington, ON, Canada) according to the manufacturer's protocol. […] Chloroform was added to the Trizol reagent at a ratio of 1:5 (chloroform:Trizol reagent) and the solution was mixed and incubated at room temperature. The solution was then centrifuged at 12,000 g for 15 min at 4°C. […] The samples were then centrifuged at 12,000 g for 10 min at 4°C to precipitate the RNA pellet. […] The pellet was allowed to air dry, and was then dissolved in RNase-free water. A Nanodrop 1000 (NanoDrop Technologies Inc., Wilmington, DE) was used to determine the concentration and purity of each sample by measuring absorbance at 260 and 280 nm. Each sample was aliquoted to make 1 μg of RNA per 10 μl of sample and stored at -80°C. A high-capacity cDNA reverse transcription kit (Applied Biosystems, Burlington, ON, Canada) was used to reverse transcribe 1 μg of RNA according to the manufacturer's instructions. Newly synthesized cDNA was stored at -20°C until the following day when it was loaded onto TaqMan low density array (TLDA) plates. Quantitative real-time PCR was performed using TLDA (Applied Biosystems) on the 7900HT real-time PCR system (Applied Biosystems). cDNA (50 ng) was diluted with water to make a volume of 50 μl and mixed with 50 μl of TaqMan Universal PCR Master Mix (Applied Biosystems). The mixture was then loaded onto a customized preconfigured 384-well TLDA plate according to the manufacturer's protocol. TaqMan gene expression assays were used to assess 21 genes that were previously reported to be differentially expressed with n-3 deprivation. […] All genes were normalized to phosphoglycerate kinase 1. Similar results were found when normalizing to β-actin or 18S rRNA.

[2] = test system: brain-derived neurotrophic factor; assay: Brain gene expression (TLDA qPCR); type: in vivo, rat; conditions: 15 wk diet; control diet = 1
Method: as §1

[3] = test system: prostaglandin E synthase 3; assay: Brain gene expression (TLDA qPCR); type: in vivo, rat; conditions: 15 wk diet; control diet = 1
Method: as §1

transthyretin = assay: Brain gene expression (TLDA qPCR); type: in vivo, rat; conditions: 15 wk diet; control diet = 1
Method: as §1

| SMILES | Brainstem gene expression: PPARg (PPARg) [RQ] | Cerebellum gene expression: PPARg (PPARg) [RQ] | Cortex gene expression: PPARg (PPARg) [RQ] | Hippocampus gene expression: PPARγ (PPARg) [RQ] | Rest of brain gene expression: PPARg (PPARg) [RQ] | Striatum gene expression: PPARg (PPARg) [RQ] | Brainstem gene expression: BDNF [2] [RQ] | Cerebellum gene expression: BDNF [2] [RQ] | Cortex gene expression: BDNF [2] [RQ] | Hippocampus gene expression: BDNF [2] [RQ] | Rest of brain gene expression: BDNF [2] [RQ] | Striatum gene expression: BDNF [2] [RQ] | Brainstem gene expression: PGES3 [3] [RQ] | Cerebellum gene expression: PGES3 [3] [RQ] | Cortex gene expression: PGES3 [3] [RQ] | Hippocampus gene expression: PGES3 [3] [RQ] | Rest of brain gene expression: PGES3 [3] [RQ] | Striatum gene expression: PGES3 [3] [RQ] | Brainstem gene expression: TTR (transthyretin) [RQ] | Cerebellum gene expression: TTR (transthyretin) [RQ] | other results |
| --- | --- | --- | --- | --- | --- | --- | --- | --- | --- | --- | --- | --- | --- | --- | --- | --- | --- | --- | --- | --- | --- |
| CC/C=C\C/C=C\C/C=C\CCCCCCCC(=O)O [ALA, α-linolenic acid] | 0.91 | 1.17 | 1.21 | 0.47 | 1.18 | 0.90 | 0.72 | 0.98 | 1.03 | 1.03 | 0.99 | 1.01 | 1.14 | 1.09 | 0.91 | 1.00 | 0.99 | 0.95 | 0.93 | 1.75 | Mean plasma [^2H-ALA]unesterified during infusion ([1]; 4.5 μmol/100 g ^2H-ALA i.v. over 3 h): 2.5 ± 0.5 nmol/mL; Smax,i (maximum first derivative) ([1]; 15 wk diet, 3 h ^2H-ALA infusion, n = 4): 0.339 ± 0.135 nmol/min; Daily Secretion Rate (daily DHA synthesis rate) ([1]; 15 wk diet, n = 4): 1452 ± 395 nmol/day; FDHA (turnover rate of esterified plasma DHA) ([1]; 15 wk diet, n = 4): 0.0002 ± 4e-05 min⁻¹; Jsyn (synthesis rate of DHA from ALA) ([1]; 15 wk diet, n = 4): 1.008 ± 0.274 nmol/min; k1,DHA (synthesis-secretion coefficient for DHA synthesis from ALA) ([1]; 15 wk diet, n = 4): 0.131 ± 0.04 mL/min; DHA synthesis rate relative to brain DHA uptake rate ([1]; ALA-fed rats, infusion synthesis vs ^14C-DHA uptake): approximately 3 fold; DHA synthesis rate from ALA (steady-state infusion) ([1]; at 15 weeks postweaning): 1.5 µmol/day; Cortex gene expression: TTR (transthyretin): 0.75 RQ; Hippocampus gene expression: TTR (transthyretin): 6.67 RQ; Rest of brain gene expression: TTR (transthyretin): 0.71 RQ; Striatum gene expression: TTR (transthyretin): 2.37 RQ |
| CC/C=C\C/C=C\C/C=C\C/C=C\C/C=C\C/C=C\CCC(=O)O [DHA, Docosahexaenoic acid] | 1.11 | 1.07 | 1.36 | 0.47 | 1.14 | 0.83 | 1.19 | 0.88 | 1.16 | 1.13 | 0.99 | 2.10 | 1.10 | 0.97 | 1.07 | 1.11 | 1.14 | 0.92 | 0.46 | 0.72 | Reduction of DHA synthesis by 2% dietary DHA ([1]; synthesis rate not quantifiable in DHA-fed rats): greater than 30 fold; Cortex gene expression: TTR (transthyretin): 1.49 RQ; Hippocampus gene expression: TTR (transthyretin): 2.40 RQ; Rest of brain gene expression: TTR (transthyretin): 1.08 RQ; Striatum gene expression: TTR (transthyretin): 0.66 RQ |
